Test results from patent publication US4692433A, “Method and composition for regulating serum calcium levels of mammals” (The Regents of the University of California, priority 1985, dated 1987).

Experiments:
fasted normal rats = test: Serum calcium change after oral administration of salmon calcitonin preparations; assay type: in vivo, rat
Procedure: (§1) The polypeptide hormone is incorporated into the liposome as follows: the phospholipid components are dissolved in an organic solvent such as chloroform. The solvent is then removed to produce a lipid film. A buffer solution containing the polypeptide hormone is then added and mixed to form a suspension of the phospholipid film and polypeptide hormone. The suspension is then sonicated to form the liposome-entrapped polypeptide hormone. The suspension is then centrifuged at 120,000 times g for 16 hours to obtain a pellet consisting of liposome-entrapped hormone while the supernatant contains the unentrapped hormone. The liposomes in the pellet are then taken up in a small amount of buffer and subsequently used to influence calcium homestasis by oral administration.
Purified salmon and human calcitonin or human parathyroid hormone (1-34 amino acid fragment) were incorporated into liposomes consisting of natural or synthetic phospholipids and positively-charged amine-containingamphiphile. Liposomes containing the entrapped hormones were isolated by centrifugation, resuspended in buffer and administered by stomach tube to fasted normal rats (calcitonin) or fasted parathyroidectomized rats (parathyroid hormone). The serum calcium was determined at various time intervals in treated and untreated animals to assess the effect of the respective preparations. […]

[1] = system: fasted parathyroidectomized rats; test: Serum calcium change after oral administration of PTH preparations by stomach tube; assay type: in vivo, rat
Procedure: as §1
Purified salmon and human calcitonin or human parathyroid hormone (1-34 amino acid fragment) were incorporated into liposomes consisting of natural or synthetic phospholipids and positively-charged amine-containingamphiphile. Liposomes containing the entrapped hormones were isolated by centrifugation, resuspended in buffer and administered by stomach tube to fasted normal rats (calcitonin) or fasted parathyroidectomized rats (parathyroid hormone). The serum calcium was determined at various time intervals in treated and untreated animals to assess the effect of the respective preparations.
450 micromoles of egg phosphatidylcholine (ePC) and 50 micromoles of stearylamine (SA) were dissolved in 2 to 3 ml of anhydrous chloroform placed in a 30 ml glass stopper tube and the solvent was removed in vacuo. To the thin film of lipid remaining on the wall of the tube was added 5.0 ml of buffer (20 mM NaCl containing 5 mM Tris, pH 7.4) containing 1 mg human PTH (hPTH 1-34) and 1×10^6 CPM of I^125 -human PTH tracer (hPTH 1-34). The buffer was mixed at room temperature for 5 minutes using a vortex mixer.
After vortexing the mixture was sonicated for 3 minutes at room temperature using the cuphorn of a Heat Systems Ultrasonics sonicator at maximal output. […]

Compound | enhancement of the calcitonin effect on serum calcium by additive (in words) (fasted normal rats) | Change in serum Ca2+ ([1]; Table 2: oral, 40 μg, after 2 hr, triplicate, mean ± Std. error of mean) | Change in serum Ca2+ ([1]; Table 3: 2 hours after oral administration to rats, 40 μg PTH, values marked (3) are triplicate mean ± Std. error of mean) [mg/dL] | effect on serum calcium (in words) ([1]; oral administration to rats, equivalent dose)
CC(=O)Oc1ccccc1C(=O)O [aspirin] | enhances slightly the effect of free CT |  |  | 
Free PTH: free human parathyroid hormone, 1-34 amino acid fragment, given orally (SVSEIQLMHNLGKHLNSMERVEWLRKKLQDVHNF; Parathyroid hormone; UniProt P01270 32-65, looked up, fragment) |  | +0.08 0.25 mg/dl | -0.05 | no effect
